# Results reported in paper PMC7006816, “Human β-Defensin 2 Mediated Immune Modulation as Treatment for Experimental Colitis” (Frontiers in Immunology, 2020).
# Where no end group is shown, it is not given here.
# How the values were obtained:
# [1] = test system: human primary PBMC's of ulcerative colitis patients; experiment: Stimulation of PBMCs of ulcerative colitis patients with LPS, cytokine release; type: cell-based; settings: LPS 20 pg/ml; 10 μg/mL hBD2; colitis patients n = 4; LegendPlex
# Method: Heparinized blood was diluted 1/1 v/v with RPMI (Gibco) and was subjected to Ficoll-Paque Plus (GE healthcare) density centrifugation within 2 h of drawing. Plasma was collected from the top from individual donors and was kept on ice until it was used at 2% in the culture medium (autologous culture medium). Isolated PBMC's were re-suspended in autologous culture medium and seeded in 96-well culture plates with 115.500 cells per well (Figure 1) or 200.000 cells per well (Figure 2) in a total of 200 μl. PBMC's from the same donor were stimulated with 100, 10 or 1 μg/ml of hBD2 either alone or together with 20 pg/ml lipopolysaccharide (LPS) (E. coli, O111:B4, Sigma L4391) or with 0.3 μg/ml Pam3CSK4 (InvivoGen). The supernatants were collected after incubation at 37°C for 24 h, and stored at −80°C until cytokine measurement.
# The experiment in Figure 2 was performed with 8 subjects (4 controls and 4 colitis patients) to study the impact of disease status on treatment efficacy. Clinical status of these subjects were subtotal remission (Simponi and Salofalk), remission (Vedolizumab), mild disease (Infliximab, Salofalk, and Prednisolon), and moderate disease (Vedolizumab). PBMCs from these subjects were analyzed for IL-1b, TNF-a, IFN-g, IL-12, and IL-23 expression using a human inflammation cytometric bead array (LegendPlex Biolegends) according to manufacturer's instructions.
# murine BM-DC's = experiment: Cytokine production by murine BM-DC's; type: cell-based, mouse; settings: n = 3
# Method: BM-DC's were generated using granulocyte-macrophage colony-stimulating factor (GM-CSF) and RPMI-1640 medium (Merck) supplemented with 10% fetal calf serum (FBS; Life Technologies), 2 mM glutamine (Thermo Fisher), 100 U/ml penicillin/streptomycin (Gibco), 50 μM 2-mercaptoethanol (Roth), 1 mM sodium pyruvate (Biochrome), and 1x non-essential amino acids (Biochrome) as previously described ([28]). Shortly, 2 × 10^6 bone marrow cells flushed from the tibias and femurs of C57BL/6 mice were seeded in dishes containing 200 U/ml GM-CSF. After 3 days extra medium containing GM-CSF was added to the cells and on day 6 half of the medium was replaced by fresh […] containing GM-CSF. After 7 or 8 days slightly attached cells were harvested. Female C57BL/6JolaHsd mice were purchased from Janvier (St. Berthevin Cedex, France). Animal experiments were performed in strict accordance with the German regulations of the Society for Laboratory Animal Science (GV-SOLAS) and the European Health Law of the Federation of Laboratory Animal Science Associations (FELASA). The protocol was approved by the Regierungspräsidium Tübingen (Anzeige 09.01.2014).
# 2 × 10^5 murine BM-DC's or human Mo-DC's were seeded in 96-well round bottom plates. First they were pretreated with 100 ng/ml pertussis toxin (Sigma-Aldrich) or 5 μM of the CCR2 inhibitor RS 504393 (Tocris) and subsequently stimulated with 100 ng/ml LPS or 0.2 […] and 10 μg/ml or 100 μg/ml hBD2. 24 h later supernatants were collected and TNF-α [Biolegend (BM-DC's); R&D (Mo-DC's)] was analyzed according to the manufacturer's instructions. IL-10, IL-12, and IL-1β (LEGENDplex Biolegend) was as well-analyzed according to the manufacturer's instructions.
# [2] = test system: C57BL/6 mice with DSS colitis; experiment: DSS colitis model; type: in vivo, mouse; settings: 0.1 mg/kg s.c. once a day
# Method: The DSS colitis study was performed by Farma-Cros Ibérica according to directive 86/609 EEC and approved by Novozymes science ethics committee. 7–8 weeks old male C57BL/6 mice were used (Charles River) and each group consisted of 10 animals. Animal allocation to all experimental groups was done in a randomized manner. Colitis was induced by supplementing the drinking water with 2% dextran sodium sulfate (DSS, 30–50 kDA, MP Biomedicals) for 7 days. On day 1 all mice were weighed and the drinking bottle was filled with the DSS solution, this solution was replaced on day 3 and 5. On day 8 the remaining solution was discarded and replaced with autoclaved water. Mice were divided into 3 groups. One group received PBS as sham treatment intravenously. One group received on day 1, 4, and 8, 300 μg/mouse of a mouse anti-TNF-α antibody (αTNF, Ramcon) intraperitoneally. The animals in the other group were dosed s.c. with 0.1 mg/kg hBD2 once a day, starting at day 1 until day 10. Animals were euthenized on day 10. Daily clinical assessment was carried out to calculate a validated clinical disease activity index (DAI) ranging from 0 to 4 according to the following parameters: body weight loss, presence or absence of rectal bleeding, stool consistency. One mouse in the DSS control group had to be euthanized before the end of the study.
# Sections of the colon were taken from each animal and preserved in neutral buffered formaline for subsequent histological analysis. Sections were stained using haematoxylin and eosin for further scoring.
# [3] = LPS, hBD2 100 μg/ml, 24 h, LEGENDplex
substance,measurement,setting,value
"human β-defensin 2 (GIGDPVTCLKSGAICHPVFCPRRYKQIGTCGLPGTKCCKKP; not fully specified; ends and bridges not checked) [hBD2, Recombinant human β-defensin 2 expressed in E. coli as his-tagged thioredoxin fusion, cleaved and purified, natural tertiary structure]","Proinflammatory immune response (IL-1β, TNF-α, INF-γ, IL-23, IL-12p70 release)",[1],successfully attenuated the proinflammatory immune response
same,TNF-α production in LPS-challenged murine BM-DCs,"murine BM-DC's; LPS, hBD2 100 μg/ml or 10 μg/ml, 24 h, ELISA",dose-dependently curbed TNF-α production
same,IL-10 secretion,murine BM-DC's; [3],substantial induction
same,LPS-induced IL-1β secretion,murine BM-DC's; [3],alleviated
same,LPS-induced IL-12p70 secretion,murine BM-DC's; [3],alleviated
same,LPS-induced TNF-α secretion,murine BM-DC's; [3],alleviated
same,Cytokine production after TLR-independent activation,"murine BM-DC's; cytokine cocktail TNF-α, IL-6, IL-1β (0.2 mg/ml each), hBD2 100 μg/ml",failed to modulate TLR-independent activation of BM-DCs
same,Outcome of DSS colitis,"[2]; day 1-10, 2% DSS 7 days, n = 10",significant improvement of colitis
same,"Therapeutic effect compared with anti-TNF-α antibody (300 μg/mouse i.p. day 1, 4, 8)",[2]; 2% DSS,superior to anti-TNF-α treatment
same,Histology score of the colon (mucosal damage),"[2]; 2% DSS, end of experiment, n = 10",significantly reduced mucosal damage
same,DAI,"[2]; 2% DSS, n = 10",improved the DAI
same,Weight change,"[2]; 2% DSS, n = 10",prevented excessive weight loss
